Consider one molecule from patent US20150366884A1, “COMPOSITIONS AND METHODS FOR CANCER THERAPY” (UNIVERSITY OF IOWA RESEARCH FOUNDATION, priority 2013, published 2015).

The subject of one series is melanoma tumor. As to the kind of experiment: Treatment of melanoma tumor bearing animals. It is filed as in vivo.
In series [1] the test system is non-malignant melanocyte cells. The series is described as follows: MTT viability analysis, TPP chain length and treatment time, melanocytes. Particulars: 0.5 μM.
Protocol: (§1) A375 human melanoma (catalog no. CRL1619™) cells were purchased from ATCC®. All cells were cultured in 150 cm^2 culture flasks at 37° C. in a humidified 5% CO2 incubator and detached with 0.25% trypsin-EDTA (GIBCO®, catalog no. 25200). A375 cells were cultured in high glucose DMEM medium (GIBCO®, catalog no. 11965) supplemented with 1% PenStrep (GIBCO®, catalog no. 15140) and 10% FBS (GIBCO®, catalog no. 26140). MeWo cells were cultured in 1:1 DMEM:F12 (VENDOR INFO) medium supplemented with 1% PenStrep and 10% FBS. Melanocytes were cultured in Ham's F10 medium (GIBCO®, catalog no 11550) supplemented with 7% horse serum (Hyclone®, catalog no. SH30074.03) and 50 ng/mL 12-myristate 13-acetate (TPA) (Sigma®, catalog no. P-8139). Experiments were performed with cells at or below passage twenty.
(§2) MTT viability analysis of melanoma cells versus non-malignant melanocyte cells looking at the effect of variation in TPP molecular chain length and treatment time. A375 human melanoma cells in (A), MeWo human melanoma cells in (B), and non-malignant melanocyte cells in (C) were treated with TPP derivatives at a 0.5 μM concentration for 24 h, 48 h, and 72 h.
In series [2] the test system is MeWo human melanoma cells. As to the kind of experiment: MTT viability analysis, TPP chain length and treatment time, MeWo cells. The settings on record: for cytotoxicity at 0.5 µM: Homo sapiens, MeWo, read-out: decrease in MeWo cell viability.
Protocol: as §1, §2
The subject of series [3] is A375 human melanoma cells. The series is described as follows: MTT viability analysis, TPP chain length and treatment time, A375 cells. The settings on record: for cytotoxicity at 0.5 µM: Homo sapiens, read-out: decrease in A375 cell viability.
Protocol: as §1, §2

Each structure is given as a SMILES string. Where two headings read alike, the source gives them in different places.

Turning to `CCCCCCCCCC[P+](c1ccccc1)(c1ccccc1)c1ccccc1` [decyl-TPP, decyltriphenylphosphonium], the tolerability entry in the series on melanoma tumor is on record as “well-tolerated”. Also, the “decrease in non-malignant melanocyte cell viability” value in series [1] (24 h) and in series [1] (48 h) was “No significant decrease” in each case. In series [1] (72 h), the “decrease in melanocyte viability” value is on record as “not observed”. The “decrease in MeWo cell viability” value in series [2] (0.5 μM, 24 h) is listed as “no significant decrease”. For the same molecule, the cytotoxicity at 0.5 µM in series [2] (48 h) is above 30%; in series [2] (72 h) it was above 30%; in series [3] (A-375, 48 h), above 30%; in series [3] (A-375, 72 h), above 30%. In addition, the “decrease in A375 cell viability” value in series [3] (0.5 μM, 24 h) is “no significant decrease”.
